Tests used:
[1] = Accelerated oxidation of ICLs with H2O2/Fe(III)Cl, UHPLC-CAD; assay type: physicochemical; details: for % of parent lipid peak at time 0, 24 h / % of parent lipid peak at time 0, 48 h / % of parent lipid peak at time 0, 72 h: Table 14, ICL lipid suspensions, 1% H2O2/100 μM Fe(III)Cl, 37° C.; for degradation: after 48 hours of incubation with hydrogen peroxide
Description: Individual lipid stocks (10 mM) were prepared in ethanol and stored at −20° C. […] Liposomal formulations based on AKG-UO-1 and O-11769 ionizable cationic lipids (Table 12) were prepared by combining lipid mixtures of desired composition in 1 mL ethanol with 3 mL 6.25 mM sodium acetate, pH 5.0 at 6 mL/min on a NanoAssemblr (Precision Nanosystems). 3.6 mL of the mixture was retained, while the initial 0.35 mL of the mixture and final 0.05 mL were discarded. Ethanol was removed by buffer exchange into PBS, pH 7.4 by concentrating each liposome preparation using an Aminon-Ultra 4 centrifugal concentrator at 500 g for 10 min at 4° C. and diluting back to the original volume with PBS. This cycle was repeated multiple times until the ethanol concentration was <1%. Finally, liposomes were sterile filtered through 0.2 μm PES (Nalgene) syringe filters and size measured by a ZetaSizer (Malvern).
Aliquots of the liposomal formulations were stored at −80° C. and thawed before the experiment. A combined stock in water of 10% H2O2 (Sigma-Aldrich, cat #H1009) and 1 mM of Fe(III)Cl (Sigma-Aldrich, cat #372870) was freshly prepared prior to the treatment. To make 1% final concentration of H2O2 and 100 μM Fe(III)Cl, 10 μl of 10% H2O2/1 mM Fe(III)Cl stock was added to 90 μl of both liposomal formulations and individual lipids The liposomes and individual lipids were incubated with H2O2/Fe(III)Cl at 37° C. and then 5 μl from each sample was taken at different time points (0, 3, 24, 48 and 72 hours) and dissolved in 90 μl of MeOH for HPLC analysis. Degradation of the main lipid peak was analyzed using Thermo Scientific Vanquish Flex UHPLC occupied with Charged Aerosol Detector (CAD) and Thermo Scientific Accucore™ C18+ UHPLC column (L=50 mm, D=2.1 mm, Particle Size=1.5 μm).
The data are presented as a percentage of the main lipid peak measured at different time points relative to the lipid peak measured at time zero.

[2] = Apparent pKa of ionizable lipid in LNP by TNS fluorescence; details: pH 3, probe TNS (2-(p-toluidino)-6-naphthalene sulfonic acid)
physchem = details: pH 3

Row | pKa [2] | Compound | other results
1 |  | CCCCC/C=C\C/C=C\CCCCCCCCC1(CCCCCCCC/C=C\C/C=C\CCCCC)OCC(CCN(C)C)O1 (stereo not drawn) [KC2, DLin-KC2-DMA] | % of parent lipid peak at time 0, 24 h [1]: 35 ± 0.7%; % of parent lipid peak at time 0, 48 h [1]: 6 ± 1.9%; % of parent lipid peak at time 0, 72 h [1]: 0 ± 0.0%; degradation [1]: fully degraded
2 | 6 to 7 | CCCCC/C=C\CCCC/C=C\CCCCCC1(CCCCC/C=C\CCCC/C=C\CCCCC)OCC(CCCN(C)C)O1 (stereo not drawn) [Compound 3] | 
3 |  | CCCCC/C=C\C/C=C\CCCCCCCC(=O)OC[C@H](CCN(C)C)OC(=O)CCCCCCC/C=C\C/C=C\CCCCC [Compound O-11769] | % of parent lipid peak at time 0, 24 h [1]: 31 ± 0.9%; % of parent lipid peak at time 0, 48 h [1]: 1 ± 0.2%; % of parent lipid peak at time 0, 72 h [1]: 0.3 ± 0.1%; degradation [1]: fully degraded
4 | 6 to 7 | CCCCC/C=C\CCCC/C=C\CCCCCC(CCCCC/C=C\CCCC/C=C\CCCCC)OC(=O)CCCN(C)C [Compound 9] | 
5 | 6 to 7 | CC/C=C\CCCC/C=C\CCCCCCCC(=O)OC[C@H](CCN(CC)CC)OC(=O)CCCCCCC/C=C\CCCC/C=C\CC [Compound 19] | 
6 | 6 to 7 | CC/C=C\CCCC/C=C\CCCCCCCCC1(CCCCCCCC/C=C\CCCC/C=C\CC)OCC(CCN(C)C)O1 (stereo not drawn) [Compound 2] | 
7 | 6 to 7 | CCC/C=C\CCCC/C=C\CCCCCC(CCCCC/C=C\CCCC/C=C\CCC)OC(=O)CCCCN(C)C [Compound 15] | 
8 | 6 to 7 | CCC/C=C\CCCC/C=C\CCCCCC1(CCCCC/C=C\CCCC/C=C\CCC)OCC(CCN(CC)CC)O1 (stereo not drawn) [Compound 7] | 
9 | 6 to 7 | CCC/C=C\CCCC/C=C\CCCCC(=O)OC[C@H](CCN(C)C)OC(=O)CCCC/C=C\CCCC/C=C\CCC [Compound 23] | 
10 |  | CC(C)CCC[C@@H](C)[C@H]1CCC2[C@@H]3CC=C4CC(SSCCCCN(C)C)CC[C@]4(C)[C@H]3CC[C@@]21C (stereo partly drawn) [Compound 36] | pKa (physchem): 6 to 7
11 | 6 to 7 | CCCCC/C=C\CCCC/C=C\CCCCCC(CCCCC/C=C\CCCC/C=C\CCCCC)OC(=O)CCCN(CC)CC [Compound 11] | 
12 | 6 to 7 | CC/C=C\CCCC/C=C\CCCCCCCC(=O)OC[C@H](CCN(C)C)OC(=O)CCCCCCC/C=C\CCCC/C=C\CC [Compound 17] | 
13 | 6 to 7 | CCC/C=C\CCCC/C=C\CCCCCC1(CCCCC/C=C\CCCC/C=C\CCC)OCC(CCCN(C)C)O1 (stereo not drawn) [Compound 8] | 
14 | 6 to 7 | CCC/C=C\CCCC/C=C\CCCCCC(CCCCC/C=C\CCCC/C=C\CCC)OC(=O)CCCN(C)C [Compound 14] | 
15 | 6 to 7 | CCCCCC/C=C\CCSSCCCCC1(CCCCSSCC/C=C\CCCCCC)OCC(CCN(C)C)O1 (stereo not drawn) [Compound 30] | 
16 | 6 to 7 | CCCCC/C=C\CCCC/C=C\CCCCCC(CCCCC/C=C\CCCC/C=C\CCCCC)OC(=O)CCCCN(C)C [Compound 12] | 
17 | 6 to 7 | CC/C=C\CCCC/C=C\CCCCCCCCC(CCCCCCCC/C=C\CCCC/C=C\CC)OC(=O)CCCN(C)C [Compound 10] | 
18 | 6 to 7 | CCCCCCCC/C=C\CCSSCCCCC(CCCCSSCC/C=C\CCCCCCCC)OC(=O)CCCN(C)C [Compound 31] | 

Row | pKa [2] | Compound | other results
19 | 6 to 7 | CCCCCC/C=C\CCSSCCCCC(CCCCSSCC/C=C\CCCCCC)OC(=O)CCCN(C)C [Compound 32] | 
20 | 6 to 7 | CCC/C=C\CCCC/C=C\CCCCCC1(CCCCC/C=C\CCCC/C=C\CCC)OCC(CCN(C)C)O1 (stereo not drawn) [Compound 5] | 
21 |  | CC(C)CCC[C@@H](C)[C@H]1CCC2[C@@H]3CC=C4CC(SSCCCN(C)C)CC[C@]4(C)[C@H]3CC[C@@]21C (stereo partly drawn) [Compound 35] | pKa (physchem): 6 to 7
22 | 6 to 7 | CCCCCC/C=C\CCCCCCCCC(CCCCCCCC/C=C\CCCCCC)OC(=O)CCCN(C)C [Compound 13] | 
23 | 6 to 7 | CC/C=C\CCCC/C=C\CCCCCCCC(=O)OC[C@H](CCCN(C)C)OC(=O)CCCCCCC/C=C\CCCC/C=C\CC [Compound 18] | 
24 | 6 to 7 | CCC/C=C\CCCC/C=C\CCCCCC(CCCCC/C=C\CCCC/C=C\CCC)OC(=O)CCCN(CC)CC [Compound 16] | 
25 | 6 to 7 | CCCCCCCC/C=C\CCSSCCCCC1(CCCCSSCC/C=C\CCCCCCCC)OCC(CCN(C)C)O1 (stereo not drawn) [Compound 29] | 
26 |  | CCCCC/C=C\CCCC/C=C\CCCCCC1(CCCCC/C=C\CCCC/C=C\CCCCC)OC[C@H](CCCN(C)C)O1 [KC3-01, 3-((S)-2,2-di((6Z,12Z)-octadeca-6,12-dien-1-yl)-1,3-dioxolan-4-yl)-N,N-dimethylpropan-1-amine] | % of parent lipid peak at time 0, 24 h [1]: 83 ± 4.3%; % of parent lipid peak at time 0, 48 h [1]: 80 ± 0.4%; % of parent lipid peak at time 0, 72 h [1]: 74 ± 2.2%
27 |  | CCCCC/C=C\CCCC/C=C\CCCCCC1(CCCCC/C=C\CCCC/C=C\CCCCC)OC[C@H](CCN(C)C)O1 [KC2-01, 2-((S)-2,2-di((6Z,12Z)-octadeca-6,12-dien-1-yl)-1,3-dioxolan-4-yl)-N,N-dimethylethan-1-amine] | % of parent lipid peak at time 0, 24 h [1]: 91 ± 0.3%; % of parent lipid peak at time 0, 48 h [1]: 87 ± 0.9%; % of parent lipid peak at time 0, 72 h [1]: 83 ± 0.3%
28 | 6 to 7 | CCC/C=C\CCCC/C=C\CCCCC(=O)OC[C@H](CCCN(C)C)OC(=O)CCCC/C=C\CCCC/C=C\CCC [Compound 25] | 
29 | 6 to 7 | CCCCCC/C=C\CCSSCCCC(=O)OC[C@H](CCN(C)C)OC(=O)CCCSSCC/C=C\CCCCCC [Compound 34] | 
30 |  | CCCCC/C=C\C/C=C\CCCCCCCCC1(CCCCCCCC/C=C\C/C=C\CCCCC)OCC(CCCN(C)C)O1 (stereo not drawn) [KC3, Dlin-KC3-DMA] | % of parent lipid peak at time 0, 24 h [1]: 46 ± 1.8%; % of parent lipid peak at time 0, 48 h [1]: 1 ± 0.2%; % of parent lipid peak at time 0, 72 h [1]: 0 ± 0.0%; degradation [1]: fully degraded
31 | 6 to 7 | CCCCCCCC/C=C\CCSSCCCC(=O)OC[C@H](CCN(C)C)OC(=O)CCCSSCC/C=C\CCCCCCCC [Compound 33] | 
32 | 6 to 7 | CCCCC/C=C\CCCC/C=C\CCCCCC1(CCCCC/C=C\CCCC/C=C\CCCCC)OCC(CCN(CC)CC)O1 (stereo not drawn) [Compound 6] | 
33 | 6 to 7 | CCCCC/C=C\CCCC/C=C\CCCCCC1(CCCCC/C=C\CCCC/C=C\CCCCC)OCC(CCN(C)C)O1 (stereo not drawn) [Compound 1] | 
34 | 6 to 7 | CCC/C=C\CCCC/C=C\CCCCC(=O)OC[C@H](CCN(CC)CC)OC(=O)CCCC/C=C\CCCC/C=C\CCC [Compound 24] | 
35 | 6 to 7 | CCCCCC/C=C\CCCCCCCCC1(CCCCCCCC/C=C\CCCCCC)OCC(CCN(C)C)O1 (stereo not drawn) [Compound 4] | 
36 |  | CCCCC/C=C\CCCC/C=C\CCCCC(=O)OC[C@H](CCN(C)C)OC(=O)CCCC/C=C\CCCC/C=C\CCCCC [UO-1] | % of parent lipid peak at time 0, 24 h [1]: 78 ± 0.6%; % of parent lipid peak at time 0, 48 h [1]: 74 ± 0.1%; % of parent lipid peak at time 0, 72 h [1]: 65 ± 2.5%

Row | Compound | pKa [2] | other results
37 | CC/C=C\CCCC/C=C\CCCCCCCC(=O)OC[C@H](COP(=O)(OC)OCCCN(C)C)OC(=O)CCCCCCC/C=C\CCCC/C=C\CC (stereo partly drawn) [Compound 20] | 6 to 7 | 
38 | CC/C=C\CCCC/C=C\CCCCCCCC(=O)OC[C@H](COP(=O)(OC)OCCCN(CC)CC)OC(=O)CCCCCCC/C=C\CCCC/C=C\CC (stereo partly drawn) [Compound 21] | 6 to 7 | 
39 | CC/C=C\CCCC/C=C\CCCCCCCC(=O)OC[C@H](COP(=O)(OC)OCCCCN(C)C)OC(=O)CCCCCCC/C=C\CCCC/C=C\CC (stereo partly drawn) [Compound 22] | 6 to 7 | 
40 | CCC/C=C\CCCC/C=C\CCCCC(=O)OC[C@H](COP(=O)(OC)OCCCCN(C)C)OC(=O)CCCC/C=C\CCCC/C=C\CCC (stereo partly drawn) [Compound 28] | 6 to 7 | 
41 | CCC/C=C\CCCC/C=C\CCCCC(=O)OC[C@H](COP(=O)(OC)OCCCN(C)C)OC(=O)CCCC/C=C\CCCC/C=C\CCC (stereo partly drawn) [Compound 26] | 6 to 7 | 
42 | CCC/C=C\CCCC/C=C\CCCCC(=O)OC[C@H](COP(=O)(OC)OCCCN(CC)CC)OC(=O)CCCC/C=C\CCCC/C=C\CCC (stereo partly drawn) [Compound 27] | 6 to 7 | 

Source: patent US12331264B2, “Lipid nanoparticles for delivery of nucleic acids and methods of use thereof” (Akagera Medicines, Inc., priority 2020, dated 2025)
